Data set [1] relates to MES-SA/DX5 (multidrug resistant carcinoma subline of MES-SA). As to the kind of experiment: SRB cytotoxicity test, MES-SA/DX5. In kind it is cell-based, human. The conditions noted are these: for IC50: Homo sapiens, MES-SA/Dx5, 48 h. How it is done:
(§1) To determine the cytotoxicity against human tumor cell line of the test samples prepared in Examples, following sulforhodamin B (SRB) bioassy test was performed according to the method disclosed in the literature (Skehan, P., et al., J. Natl. Cancer Inst., 82, 1990, 1107-1112).
(§2) Various human tumor cell lines, i.e., A-549 (human adenocarcinoma of lung, NCI), SK-OV-3 (human ovarian tumor, NCI), SK-MEL-2 (human malignant melanoma, NCI), HCT15 (human colon adenocarcinoma, NCI), MES-SA (human uterine carcinoma, NCI) and MES-SA/DX5 (multidrug resistant carcinoma subline of MES-SA, NCI) were used in the test.
(§3) The subcultured cell lines were detached from the surface of wall using by trypsin-EDTA solution and adjusted to various concentration of cell lines, i.e., 5×10^3 cells/well (A-549, HCT15), 1×10^4 cells/well (SK-MEL-2), 5×10^3 cells/well (SK-OV-3) in 96-well flat bottom microplate. The inoculated cell lines were incubated in CO2 incubator (MCO-20AIC, SANYO Electric Co., LTd.) to be attached on the bottom of incubator and the culture media was removed with aspirator. 6 logarithmic concentrations of the diluted test samples were added to each well containing cell line at 100 μl/well in a three fold dilution manner and the cell was incubated for 48 hours. The culture media in each well was removed and 100μ of 10% trichloroacetic acid was added thereto to be left alone at 4° C. for 1 hour and to fix the cells to the bottom of the plates. […] The cell plates were shaked with titer plate shaker (KOMA Orbital Shaker KE011, KOMABIOTech) for 10 mins to exude the staining solution and to determine the absorbance at 520 nm using by microplate spectrophotometer (Sunrise, TECAN).

The subject of data set [2] is HPV16 PVs. As to the kind of experiment: Virus inhibition test (in vitro), SEAP activity of 293TT cells infected with HPV pseudovirion. In kind it is cell-based. The conditions noted are these: Human papillomavirus 16, read-out: inhibitory activity from HPV16 PVs. How it is done: Prior to in vitro antiviral assay, 5×10^3 of 293TT cell was seeded on 96-well plate and incubated at 37° C. for 16 hours in 5% CO2 atmosphere. The culture media was removed and each extract was diluted to the concentration of 100 μg/ml or 50 μg/ml to distribute into each cell at the dose of 100 μl/cell. After treating with the extract for 16 hours, the culture media was removed and the cell was washed with PBS twice. The cell was infected by 106RLU/ml of HPV PVs at the dose of 100 μl/cell and incubated for 48 hours at 37° C. in 5% CO2 atmosphere. To determine the viral activity, the supernatant of the cell culture was used for determine the activity of secreted alkaline phosphatase (SEAP) using by Great EscAPE™ SEAP Chemiluminescence Kit (631738, Clontech, CA, USA). To determine the SEAP activity, relative light units (RLU) value was obtained using by Luminescence coulter (Micro beta triLux 1450, PerkinElmer, CT, USA) and the RLU values of the cell treated with the extract and untreated with the extract, were compared with each other. The decrease of SEAP activity was regarded as the inhibition effect against HPV PVs.
To determine the inhibitory effect on luciferase-comprising HPV virus contagion of the test samples prepared in Examples, following test was performed according to the method disclosed in the literature (Shaneyfelt et al., Virology Journal, 3:68, 2006, 1-11; Roden et al., J. Virol., 70, 1996, 5875-5883; Unckell et al., J. Virol., 71, 1997, 2934-2939; Touze et al., Nucleic Acids Research, 26, 1998, 1317-1323; Selinka et al., J. Virol., 77, 2003, 12961-12967; Klasse et al., Journal of General Virology, 83, 2002, 2091-2108)
5×10^3293TT cell was seeded on 96-well plate and incubate for 16 hours. 50 μg of test sample was mixed with the culture media in the concentration of 100 ug/ml and incubated for 16 hours. The media was washed with 100 μl of PBS twice and the cell was infected with 10^6RLU/ml of HPV pseudovirion at the dose of 100 μl/cell to incubate at 37° C., for 48 hours in 5% CO2 atmosphere.
5× lysis buffer in Great EscAPE™ SEAP Chemiluminescence Kit (631738, Clontech, CA, USA) was made to 1× and both of 45 μl of 1× lysis buffer and 15 μl of cell culture medium were added to 96-well plate (3912, Costar, NY, USA). 60 μl of the substrate in Great EscAPE™ SEAP Chemiluminescence kit was added thereto and the relative light units (RLU) value was obtained using by Luminescence coulter (Micro beta triLux 1450, PerkinElmer, CT, USA). The RLU values of the cell treated with the extract and untreated with the extract, were compared with each other and the decrease of SEAP activity was regarded as the inhibition effect against HPV PVs.

Data set [3] concerns MES-SA (human uterine carcinoma). As to the kind of experiment: SRB cytotoxicity test, MES-SA. Format: cell-based. The conditions noted are these: for IC50: Homo sapiens, MES-SA, 48 h, read-out: Cytotoxicity IC50, MES-SA. How it is done:
as §1, §2, §3
(In general: Sulforhodamine B stains cellular protein and so reports cell mass.)

Data set [4] has as its system HCT15/CL02. The data set can be described thus: SRB cytotoxicity test, HCT15/CL02. In kind it is cell-based, human. The conditions noted are these: Table 4, 48 hours; for IC50: Homo sapiens, HCT-15. How it is done: To determine the cytotoxicity against human tumor cell line of the test samples prepared in Examples, following sulforhodamin B (SRB) bioassy test was performed according to the method disclosed in the literature (Skehan, P., et al., J. Natl. […] The inoculated cell lines were incubated in CO2 incubator (MCO-20AIC, SANYO Electric Co., LTd.) to be attached on the bottom of incubator and the culture media was removed with aspirator. 6 logarithmic concentrations of the diluted test samples were added to each well containing cell line at 100 μl/well in a three fold dilution manner and the cell was incubated for 48 hours. […] The cell plates were shaked with titer plate shaker (KOMA Orbital Shaker KE011, KOMABIOTech) for 10 mins to exude the staining solution and to determine the absorbance at 520 nm using by microplate spectrophotometer (Sunrise, TECAN).

In data set [5] the test system is HCT15 (human colon adenocarcinoma). The data set can be described thus: SRB cytotoxicity test, HCT15. In kind it is cell-based. The conditions noted are these: for IC50: Homo sapiens, HCT-15, 48 h, read-out: Cytotoxicity IC50, HCT15. How it is done:
as §1, §2, §3

The subject of data set [6] is SK-MEL-2 (human malignant melanoma). As to the kind of experiment: SRB cytotoxicity test, SK-MEL-2. Format: cell-based. The conditions noted are these: for IC50: Homo sapiens, SK-MEL-2, Table 3, 48 hours, read-out: Cytotoxicity IC50, SK-MEL-2. How it is done:
as §1, §2, §3

For data set [7], the system named is A-549 (human adenocarcinoma of lung). The data set can be described thus: SRB cytotoxicity test, A-549. The conditions noted are these: for IC50: Homo sapiens, A549, Table 3, 48 hours, read-out: Cytotoxicity IC50, A-549. In kind it is cell-based. How it is done: as §1, §2, §3
The test system of data set [8] is SK-OV-3 (human ovarian tumor). The data set can be described thus: SRB cytotoxicity test, SK-OV-3. In kind it is cell-based. The conditions noted are these: for IC50: Homo sapiens, SK-OV-3, Table 3, 48 hours, read-out: Cytotoxicity IC50, SK-OV-3. How it is done:
as §1, §2, §3

[9] abbreviates: read-out: Cytotoxicity IC50, MES-SA/DX5.

Values after ≈ are worked out from the molar mass of the structure shown. Where two headings read alike, the source gives them in different places.

`C=C1CCC2[C@](C)(C(=O)O)CCC[C@]2(C)[C@H]1CC[C@H](C)CCO` (stereo partly drawn) [compound (b), (13S)-15-hydroxylabd-8(17)-en-18-oic acid]: the IC50 in data set [1] (setting [9]) came out at 11.5 µg/mL (≈ 35.7 µM); in data set [3] (Table 4, 48 hours), 19.1 µg/mL (≈ 59.1 µM); in data set [4] it was 12.8 µg/mL (≈ 39.8 µM); in data set [5] (Table 4, 48 hours), 20.2 µg/mL (≈ 62.5 µM). Further, the inhibition at 50 µg/mL in data set [2] lay within 70 to 80%.
On to `CC(C)(O)c1ccc2c(c1)CC[C@H]1[C@](C)(C(=O)O)CCC[C@]21C` [compound (k), 15-hydroxydehydroabietic acid], for which the IC50 amounted to 91.9 µg/mL (≈ 290 µM) in data set [1] (setting [9]); 88.8 µg/mL (≈ 281 µM) in data set [6]; 90.7 µg/mL (≈ 286 µM) in data set [3] (Table 3, 48 hours); 109 µg/mL (≈ 345 µM) in data set [7]; 98.2 µg/mL (≈ 310 µM) in data set [5] (Table 3, 48 hours); 142 µg/mL (≈ 448 µM) in data set [8]. Besides, the inhibition at 50 µg/mL in data set [2] was 70 to 80%.
As for `CC(C)(O)c1ccc2c(c1)C(=O)C[C@H]1[C@](C)(C(=O)O)CCC[C@]21C` [compound (g), 7-oxo-15-hydroxydehydroabietic acid], the IC50 in data set [1] (setting [9]) is more than 30 µg/mL; in data set [3] (Table 4, 48 hours), more than 30 µg/mL; in data set [4], more than 30 µg/mL; in data set [5] (Table 4, 48 hours), more than 30 µg/mL. The inhibition at 50 µg/mL in data set [2] lay in the range of 70 to 80%.
Regarding `C=C[C@]1(C)CCC2[C@@]3(C)CCC[C@@](C)(CO)C3CC[C@@]2(C)O1` (single isomer, unassigned; ent-18) [compound (h), ent-18-hydrorxy-13-epimanoyl oxide], the IC50 in data set [1] (setting [9]) amounted to 9.54 µg/mL (≈ 31.1 µM); in data set [6], 11.3 µg/mL (≈ 36.7 µM); in data set [3] (Table 3, 48 hours), 8.17 µg/mL (≈ 26.7 µM); in data set [7], 13.3 µg/mL (≈ 43.5 µM); in data set [5] (Table 3, 48 hours) it was 10 µg/mL (≈ 32.8 µM); in data set [8] it was 12.7 µg/mL (≈ 41.4 µM). Further, the inhibition at 50 µg/mL in data set [2] lay within 70 to 80%.
For “9,14-dihydroxytotara-7-ene-8-oic acid [compound (a)]”, the “Cytotoxicity IC50, SK-MEL-2” value in data set [6] turned out to be 99.45 µg/mL. Besides, in data set [7], the “Cytotoxicity IC50, A-549” value was found to be 127.16 µg/mL. Besides, the “Cytotoxicity IC50, HCT15” value in data set [5] was found to be 117.31 µg/mL. In addition, the “Cytotoxicity IC50, SK-OV-3” value in data set [8] stood at 120.05 µg/mL.
`C=C1CCC2C(C)(C(=O)O)CCCC2(C)C1CCC(C)CC(=O)O` (stereo not drawn) [compound (c), ent-labd-8(17)-ene-15,18-dioic acid]: the “Cytotoxicity IC50, MES-SA/DX5” value in data set [1] (Table 4, 48 hours) is more than 30.0 µg/mL. Moreover, the “Cytotoxicity IC50, MES-SA” value in data set [3] is more than 30.0 µg/mL. Moreover, the “Cytotoxicity IC50, HCT15/CL02” value in data set [4] turned out to be 21.47 µg/mL. Besides, the “Cytotoxicity IC50, HCT15” value in data set [5] is more than 30.0 µg/mL.
Regarding `C[C@@]1(C(=O)O)CCC[C@]2(C)c3ccc(O)cc3CCC12` (stereo partly drawn) [compound (e), 13-hydroxy-8,11,13-podocarpatrien-18-oic acid], the IC50 in data set [1] (setting [9]) is 25.8 µg/mL (≈ 94.2 µM); in data set [3] (Table 4, 48 hours) it was more than 30 µg/mL; in data set [4], 26.4 µg/mL (≈ 96.1 µM); in data set [5] (Table 4, 48 hours), more than 30 µg/mL. In addition, the inhibition at 50 µg/mL in data set [2] lay in the range of 70 to 80%.
In the case of `C=C1CCC2[C@](C)(C(=O)O)CCC[C@]2(C)[C@H]1/C=C/C(C)=O` (stereo partly drawn) [compound (d), 13-oxo-15,16-dinorlabda-8(17),11E-dien-19-oic acid], the IC50 in data set [1] (read-out: Cytotoxicity IC50, MES-SA/DX5, Table 4, 48 hours) is more than 30 µg/mL; in data set [3] (Table 4, 48 hours) it was more than 30 µg/mL; in data set [4], 27.6 µg/mL (≈ 95.2 µM); in data set [5] (Table 4, 48 hours), more than 30 µg/mL. Further, the inhibition at 50 µg/mL in data set [2] is 70 to 80%.
`C=C1CC[C@H]2O[C@]2(C)CC[C@@H]2[C@@H]1CC2(C)C` [compound (l), caryophyllene oxide]: the IC50 in data set [1] (setting [9]) came to 17.7 µg/mL (≈ 80.5 µM); in data set [6] it was 18.6 µg/mL (≈ 84.6 µM); in data set [3] (Table 3, 48 hours), 15.2 µg/mL (≈ 69.2 µM); in data set [7], 36.4 µg/mL (≈ 165 µM); in data set [5] (Table 3, 48 hours) it was 26.8 µg/mL (≈ 121 µM); in data set [8], 23.7 µg/mL (≈ 108 µM). In addition, the inhibition at 50 µg/mL in data set [2] lay within 70 to 80%.
Regarding `CC(C)c1ccc2c(c1)[C@H](O)CC1[C@](C)(C(=O)O)CCC[C@]21C` (stereo partly drawn) [compound (f), 7α-hydroxycallitirisic acid], the IC50 was 27.4 µg/mL (≈ 86.7 µM) in data set [1] (setting [9]); 26.8 µg/mL (≈ 84.7 µM) in data set [3] (Table 4, 48 hours); more than 30 µg/mL in data set [4]; more than 30 µg/mL in data set [5] (Table 4, 48 hours). Besides, in data set [2], the inhibition at 50 µg/mL was in the range of 70 to 80%.

For the origin of these results see patent US20140363530A1, “COMPOSITION COMPRISING THE EXTRACT OF PINE TREE LEAF OR THE COMPOUNDS ISOLATED THEREFROM FOR THE PREVENTION AND TREATMENT OF CANCER DISEASE BY INHIBITING HPV VIRUS AND THE USES THEREBY” (priority 2012, published 2014).
